Test results: EP1074259A1, “PREVENTIVES FOR ALCOHOLIC GASTRITIS” (CHUGAI SEIYAKU KABUSHIKI KAISHA, priority 1998, dated 1999)

Test system: ethanol-induced gastric mucosal injury
Assay: Prevention of 99.5% ethanol-induced gastric mucosal injury in rats
Assay type: in vivo
Settings: for Mucosal injury suppression rate (%): 1 h before 99.5% ethanol 1 ml/animal, n = 10/group
Procedure: Rats were forced to abstain from food and water for 24 hours, and used as experimental subjects. […] When the two drugs were combined, the dose of the combination treatment was set such that the proportion of sucralfate was 1/3 of the dose, and the proportion of famotidine was 2/3 of the dose, or vice versa (i.e., the proportion of sucralfate was 2/3 of the dose, and the proportion of famotidine was 1/3 of the dose). For each of the individual treatments and the combination treatments, a high dose group, a medium dose group, and a low dose group were provided by setting a high dose, a medium dose, and a low dose at a ratio of 9:3:1. Each dose level of the drug was suspended in a 2% aqueous solution of acacia. The suspension was orally administered in a volume of 2 ml/kg body weight, while only the solvent was administered in the same volume for a control group. […] One hour after administration of the test drug, 99.5% ethanol in an amount of 1 ml/animal was administered orally. One hour later, the animal subjects were sacrificed and the stomach removed, treated, and measured for the extent of injuries occurring in the gastric mucosa. The total amount of injuries occurring In the respective animals was calculated to determine the ED50 values for the preventive effect of the test drug on gastric mucosal injury. […]

Molecule	50% preventive dose ED50 (mg/kg) (drug administered alone, P.O., rats)	Mucosal injury suppression rate (%) (sucralfate alone 10 mg/kg P.O.)	Mucosal injury suppression rate (%) (sucralfate alone 30 mg/kg P.O.)	Mucosal injury suppression rate (%) (sucralfate alone 90 mg/kg P.O.)	ED50 (Rattus norvegicus, po, drug administered alone, P.O., rats, read-out: 50% preventive dose ED50) [mg/kg]	Mucosal injury suppression rate (%) (famotidine alone 10 mg/kg P.O.)	Mucosal injury suppression rate (%) (famotidine alone 30 mg/kg P.O.)	Mucosal injury suppression rate (%) (famotidine alone 90 mg/kg P.O.)
sucralfate	Sucralfate 21.4 mg/kg	19	69	92				
NC(N)=Nc1nc(CSCCC(N)=NS(N)(=O)=O)cs1 [Famotidine, famotidine]					46.3	13	42	66
